BindingDB's records for doi:10.1016/j.bmcl.2008.05.016 (Astrazeneca R&D Boston, 2008)

Test: Inhibition of Cdk1

| SMILES | IC50 |
| --- | --- |
| NC(=O)Nc1sc(-c2cccc(Cl)c2)cc1C(=O)N[C@H]1CCCNC1 [1-(3-((S)-piperidin-3-ylcarbamoyl)-5-(3-chlorophenyl)thiophen-2-yl)urea] | 8.8 µM |
| NC(=O)Nc1sc(-c2cccc(F)c2)cc1C(=O)N[C@H]1CCCNC1 [1-(3-((S)-piperidin-3-ylcarbamoyl)-5-(3-fluorophenyl)thiophen-2-yl)urea] | 5.6 µM |
| CCN(CC)CCOc1ccc(-c2cc(C(=O)NC3CCNCC3)c(NC(N)=O)s2)cc1 [1-(5-(4-(2-(diethylamino)ethoxy)phenyl)-3-(piperidin-4-ylcarbamoyl)thiophen-2-yl)urea] | > 69 µM |
| CCN(CC)CCOc1ccc(-c2cc(C(=O)Nc3cccnc3)c(NC(N)=O)s2)cc1 [1-(5-(4-(2-(diethylamino)ethoxy)phenyl)-3-(pyridin-3-ylcarbamoyl)thiophen-2-yl)urea] | 44 µM |
| CCN(CC)CCOc1ccc(-c2cc(C(=O)NC3CCNC3)c(NC(N)=O)s2)cc1 (configuration not stated) [1-(5-(4-(2-(diethylamino)ethoxy)phenyl)-3-(pyrrolidin-3-ylcarbamoyl)thiophen-2-yl)urea] | > 100 µM |
| NC(=O)Nc1sc(-c2ccc(C(=O)N3CCCCC3)cc2)cc1C(=O)N[C@H]1CCCNC1 [(S)-1-(3-(piperidin-3-ylcarbamoyl)-5-(4-(piperidine-1-carbonyl)phenyl)thiophen-2-yl)urea] | 10.8 µM |
| NC(=O)Nc1sc(-c2ccncc2)cc1C(=O)N[C@H]1CCCNC1 [(S)-1-(3-(piperidin-3-ylcarbamoyl)-5-(pyridin-4-yl)thiophen-2-yl)urea] | 1.8 µM |
| Cc1ccc(-c2cc(C(=O)N[C@H]3CCCNC3)c(NC(N)=O)s2)cc1 [(S)-1-(3-(piperidin-3-ylcarbamoyl)-5-p-tolylthiophen-2-yl)urea] | 5.5 µM |

Now from value to compound:

| IC50 | SMILES |
| --- | --- |
| 8.4 µM | CN(C)c1ccc(-c2cc(C(=O)N[C@H]3CCCNC3)c(NC(N)=O)s2)cc1 [(S)-1-(5-(4-(dimethylamino)phenyl)-3-(piperidin-3-ylcarbamoyl)thiophen-2-yl)urea] |
| 3.7 µM | CN(C)C(=O)c1ccc(-c2cc(C(=O)N[C@H]3CCCNC3)c(NC(N)=O)s2)cc1 [(S)-1-(5-(4-(dimethylcarbamoyl)phenyl)-3-(piperidin-3-ylcarbamoyl)thiophen-2-yl)urea] |
| 2.2 µM | CS(=O)(=O)c1ccc(-c2cc(C(=O)N[C@H]3CCCNC3)c(NC(N)=O)s2)cc1 [(S)-1-(5-(4-(methylsulfonyl)phenyl)-3-(piperidin-3-ylcarbamoyl)thiophen-2-yl)urea] |
| 3.3 µM | NC(=O)Nc1sc(-c2ccc(F)cc2)cc1C(=O)N[C@H]1CCCNC1 [(S)-1-(5-(4-fluorophenyl)-3-(piperidin-3-ylcarbamoyl)thiophen-2-yl)urea] |
